What is called Kd is a measure of binding affinity in units of concentration.

For the experiment, the target named is DYRK1A (Homo sapiens, UniProt Q13627). Nature of the experiment: Affinity testing of compounds with DYRK1A (KD). It counts as binding. As to conditions: DYRK1A affinity key classes.
As for `Cc1nc2ccc(-c3ccnc(N)c3)nc2n1-c1cnc(N2CCOCC2)c(Cl)c1` [Compound 166, 4-(3-(5-chloro-6-morpholinopyridin-3-yl)-2-methyl-3H-imidazo[4,5-b]pyridin-5-yl)pyridin-2-amine], the Kd lay within 0.5 to 100 nM.

Compound `O=C(O)c1ccc(-n2cnc3cc(F)c(-c4ccncc4)cc32)cc1` [Compound 8, 4-(5-fluoro-6-(pyridin-4-yl)-1H-benzo[d]imidazol-1-yl)benzoic acid] gave a Kd of 101 to 500 nM.

Turning to `CC(=O)N1CCN(c2ccc(-n3c(C)nc4ccc(-c5ccnc(N)c5)nc43)cc2F)CC1` [Compound 184], the Kd is 0.5 to 100 nM.

Turning to `Cc1nc2ccc(-c3ccnc4[nH]ccc34)nc2n1-c1ccc(N2CCOCC2)c(F)c1` [Compound 143, 4-(2-fluoro-4-(2-methyl-5-(1H-pyrrolo[2,3-b]pyridin-4-yl)-3H-imidazo[4,5-b]pyridin-3-yl)phenyl)morpholine], the Kd was 0.5 to 100 nM.

In turn, `COC(=O)c1ccc(-n2cnc3ccc(-c4ccncc4)c(F)c32)cc1` [Compound 5, methyl 4-(7-fluoro-6-(pyridin-4-yl)-1H-benzo[d]imidazol-1-yl)benzoate] came in with a dissociation constant (Kd) of 0.5 to 100 nM.

For `FC1CN(Cc2ccc(-c3cnc4ccc(-c5ccncc5)nn34)cc2)C1` [Compound 99, 3-(4-((3-fluoroazetidin-1-yl)methyl)phenyl)-6-(pyridin-4-yl)imidazo[1,2-b]pyridazine], the Kd lay within 0.5 to 100 nM.

The compound `NC(=O)c1ccnc(-n2cnc3ccc(-c4ccncc4)c(F)c32)c1` [Compound 12, 2-(7-fluoro-6-(pyridin-4-yl)-1H-benzo[d]imidazol-1-yl)isonicotinamide] registered a dissociation constant Kd of 101 to 500 nM.

On to `Cc1nc2ccc(-c3cnn(C)c3)nc2n1-c1ccc(N2CCOCC2)c(F)c1` [Compound 146, 4-(2-fluoro-4-(2-methyl-5-(1-methyl-1H-pyrazol-4-yl)-3H-imidazo[4,5-b]pyridin-3-yl)phenyl)morpholine], for which the Kd lay in the range of 0.5 to 100 nM.

As for `Cc1nc2ccc(-c3ccncc3)nc2n1-c1ccc(CN2[C@@H]3COC[C@H]2CC(=O)C3)cc1` [Compound 123, (1R,5S)-9-(4-(2-methyl-5-(pyridin-4-yl)-3H-imidazo[4,5-b]pyridin-3-yl)benzyl)-3-oxa-9-azabicyclo[3.3.1]nonan-7-one], the Kd lay in the range of 101 to 500 nM.

As to `Cc1nc2ccc(-c3ccncc3)nc2n1-c1ccc(CN2CCOCC2)cc1` [Compound 28, 4-(4-(2-methyl-5-(pyridin-4-yl)-3H-imidazo[4,5-b]pyridin-3-yl)benzyl)morpholine], the Kd was 0.5 to 100 nM.

On to `Nc1cc(-c2ccc3ncc(-c4ccc(CN5CCOCC5)cc4)n3n2)ccn1` [Compound 108, 4-(3-(4-(morpholinomethyl)phenyl)imidazo[1,2-b]pyridazin-6-yl)pyridin-2-amine], for which the Kd was 0.5 to 100 nM.

Take `Cc1nc2ccc(-c3ccnc(N)c3)nc2n1-c1ccc(N2CCOC[C@@H]2C)c(F)c1` [Compound 171, (S)-4-(3-(3-fluoro-4-(3-methylmorpholino)phenyl)-2-methyl-3H-imidazo[4,5-b]pyridin-5-yl)pyridin-2-amine]: the equilibrium dissociation constant (Kd) lay in the range of 0.5 to 100 nM.

Turning to `COC(=O)c1ccc(-n2cnc3cc(F)c(-c4ccncc4)cc32)cc1` [Compound 7, methyl 4-(5-fluoro-6-(pyridin-4-yl)-1H-benzo[d]imidazol-1-yl)benzoate], the Kd lay within 101 to 500 nM.

`CN1CCN(c2cnc3ccc(-c4ccncc4)nn23)CC1` [Compound 86, 3-(4-methylpiperazin-1-yl)-6-(pyridin-4-yl)imidazo[1,2-b]pyridazine] yielded a Kd of 501 to 10000 nM.

With `Cc1nc2ccc(-c3ccncc3)nc2n1-c1ccc2c(c1)OCC(=O)N2` [Compound 37, 7-(2-methyl-5-(pyridin-4-yl)-3H-imidazo[4,5-b]pyridin-3-yl)-2H-benzo[b][1,4]oxazin-3(4H)-one], the dissociation constant (Kd) was 0.5 to 100 nM.

Compound `Cc1nc2ccc(-c3ccnc(Cl)c3)nc2n1-c1ccc(CN2CCOCC2)cc1` [Compound 176, 4-(4-(5-(2-chloropyridin-4-yl)-2-methyl-3H-imidazo[4,5-b]pyridin-3-yl)benzyl)morpholine] came in with a Kd of 0.5 to 100 nM.

(Values after patent US12054483B2, “Small molecule inhibitors of DYRK/CLK and uses thereof” (Arizona Board of Regents on Behalf of the University of …, priority 2018, dated 2024).)
